The values that follow come from patent publication US20100056516A1 (priority 2006, published 2010).

The target of one assay is HIV integrase (Human immunodeficiency virus type 1 group M subtype B, UniProt P04585). The assay is described as follows: integrase strand transfer assay (STA). The format is biochemical. The settings on record: integrase strand transfer; read-out: IC50 in the STA assay.
Another assay concerns HXB2 virus. The assay is described as follows: microbe, parasite or virus in culture. The settings on record: Human immunodeficiency virus 1, HXB2, HeLaP4-2, read-out: antiviral IC50 (SCIA-B). The format is cell-based, HIV. Here is the method: An assay for measuring the inhibition of acute HIV infection with HeLa P4-2 cells in a single cycle infectivity assay (SCIA-A) was conducted in accordance with Joyce, J. G., et al., J. Biol. Chem., 2002, 277, 45811, Hazuda, D. J. et al., Science, 2000, 287, 646, and Kimpton, J. et al, J. Virol. 1992, 66, 2232. Infectious virus was produced by transfecting 293T cells with HIV proviral DNA in which the integrase gene was derived from a IIIB isolate and the remainder of the HIV genome was derived from the NL4-3 isolate.
This assay B for measuring the inhibition of acute HIV infection with HeLa P4-2 cells in a single cycle infectivity assay (SCIA-B) is essentially the same as Assay A described above, except that HXB2 virus is employed instead of the IIIb isolate.

Where a name gives a salt, the structure may show the parent alone. Some results are limits rather than exact numbers.

Regarding `CCOC(=O)c1c(O)c2cccnc2n(O)c1=O` [Example 1, Ethyl 1,4-dihydroxy-2-oxo-1,2-dihydro-1,8-naphthyridine-3-carboxylate], the figures for the IC50 on HIV integrase and with HXB2 virus were less than 50 µM and less than 100 µM, respectively.

With `O=c1cc(O)c2cccnc2n1O` [Example 2, 1,4-Dihydroxy-1,8-naphthyridin-2(1B)-one], the half-maximal inhibitory concentration (IC50) at HIV integrase was less than 50 µM; in the assay with HXB2 virus, less than 100 µM.

For `CCOC(=O)c1c(O)c2cc(Br)cnc2n(O)c1=O` [Example 3, Ethyl 6-bromo-1,4-dihydroxy-2-oxo-1,2-dihydro-1,8-naphthyridine-3-carboxylate], the 50% inhibitory concentration (IC50) at HIV integrase was less than 50 µM; in the assay on HXB2 virus, less than 100 µM.

As to `CN(C)C(=O)c1c(O)c2cccnc2n(O)c1=O` [Example 5, 1,4-Dihydroxy-N,N-dimethyl-2-oxo-1,2-dihydro-1,8-naphthyridine-3-carboxamide], the half-inhibitory concentration (IC50) on HIV integrase is less than 50 µM; in the assay with HXB2 virus it was less than 100 µM.

As for `O=C(NC1CC1)c1c(O)c2cccnc2n(O)c1=O` [Example 6, N-Cyclopropyl-1,4-dihydroxy-2-oxo-1,2-dihydro-1,8-naphthyridine-3-carboxamide], the IC50 is less than 50 µM on HIV integrase and less than 100 µM with HXB2 virus.

In the case of `CN(Cc1ccccc1)C(=O)c1c(O)c2cccnc2n(O)c1=O` [Example 7, N-Benzyl-1,4-dihydroxy-N-methyl-2-oxo-1,2-dihydro-1,8-naphthyridine-3-carboxamide], the IC50 at HIV integrase was less than 50 µM; in the assay with HXB2 virus, less than 100 µM.

In the case of `O=C(c1c(O)c2cccnc2n(O)c1=O)N1CCCCC1` [Example 8, 1,4-Dihydroxy-3-(piperidin-1-ylcarbonyl)-1,8-naphthyridin-2(1H)-one], the 50% inhibitory concentration (IC50) is less than 50 µM on HIV integrase and less than 100 µM with HXB2 virus.

As for `CN(C(=O)c1c(O)c2cccnc2n(O)c1=O)C1CCN(C(=O)OC(C)(C)C)CC1` [Example 9], the IC50 was less than 50 µM on HIV integrase and less than 100 µM with HXB2 virus.

With `CN(C(=O)c1c(O)c2cccnc2n(O)c1=O)C1CCN(C(=O)OC(C)(C)C)C1` (centres unmarked) [Example 10, tert-Butyl 3-[[(1,4-dihydroxy-2-oxo-1,2-dihydro-1,8-naphthyridin-3-yl)carbonyl](methyl)amino]pyrrolidine-1-carboxylate], the IC50 at HIV integrase was less than 50 µM; in the assay with HXB2 virus it was less than 100 µM.

As to `COc1ccccc1NC(=O)c1c(O)c2cccnc2n(O)c1=O` [Example 11, 1,4-Dihydroxy-N-(2-methoxyphenyl)-2-oxo-1,2-dihydro-1,8-naphthyridine-3-carboxamide], the half-maximal inhibitory concentration (IC50) is less than 50 µM on HIV integrase and less than 100 µM in the assay on HXB2 virus.

As for `COc1cccc(NC(=O)c2c(O)c3cccnc3n(O)c2=O)c1` [Example 12, 1,4-Dihydroxy-N-(3-methoxyphenyl)-2-oxo-1,2-dihydro-1,8-naphthyridine-3-carboxamide], the half-inhibitory concentration (IC50) on HIV integrase was less than 50 µM; in the assay with HXB2 virus, less than 100 µM.

In the case of `COc1ccc(NC(=O)c2c(O)c3cccnc3n(O)c2=O)cc1` [Example 13, 1,4-Dihydroxy-N-(4-methoxyphenyl)-2-oxo-1,2-dihydro-1,8-naphthyridine-3-carboxamide], the IC50 at HIV integrase is less than 50 µM; with HXB2 virus, less than 100 µM.

Take `COc1ccc(NC(=O)c2c(O)c3cccnc3n(O)c2=O)cn1` [Example 14, 1,4-Dihydroxy-N-(6-methoxypyridine-3-yl)-2-oxo-1,2-dihydro-1,8-naphthyridine-3-carboxamide]: the IC50 on HIV integrase was less than 50 µM; with HXB2 virus, less than 100 µM.

Consider `O=C(Nc1ccccc1OCc1ccccn1)c1c(O)c2cccnc2n(O)c1=O` [Example 15, 1,4-Dihydroxy-2-oxo-N-[2-(pyridin-2-ylmethoxy)phenyl]-1,2-dihydro-1,8-naphthyridine-3-carboxamide, hydrochloric acid salt], for which the IC50 was less than 50 µM at HIV integrase and greater than 100 µM with HXB2 virus.

Consider `O=C(Nc1cccnc1)c1c(O)c2cccnc2n(O)c1=O` [Example 16, 1,4-Dihydroxy-2-oxo-N-pyridin-3-yl-1,2-dihydro-1,8-naphthyridine-3-carboxamide], for which the IC50 at HIV integrase was less than 50 µM; with HXB2 virus, less than 100 µM.

In the case of `O=C(NCc1ccc(F)cc1)c1c(O)c2cccnc2n(O)c1=O` [Example 18, N-(4-Fluorobenzyl)-1,4-dihydroxy-2-oxo-1,2-dihydro-1,8-naphthyridine-3-carboxamide], the half-maximal inhibitory concentration (IC50) on HIV integrase was less than 50 µM; in the assay on HXB2 virus it was less than 100 µM.

In the case of `O=C(NCc1ccccc1)c1c(O)c2cccnc2n(O)c1=O` [Example 19, N-benzyl-1,4-dihydroxy-2-oxo-1,2-dihydro-1,8-naphthyridine-3-carboxamide], the figures for the half-maximal inhibitory concentration (IC50) at HIV integrase and in the assay with HXB2 virus were less than 50 µM and less than 100 µM, respectively.

In the case of `O=C(Nc1ccccc1)c1c(O)c2cccnc2n(O)c1=O` [Example 20, 1,4-Dihydroxy-2-oxo-N-phenyl-1,2-dihydro-1,8-naphthyridine-3-carboxamide], the IC50 at HIV integrase was less than 50 µM; in the assay on HXB2 virus, less than 100 µM.

Turning to `O=C(NCC(F)(F)F)c1c(O)c2cccnc2n(O)c1=O` [Example 22, 1,4-Dihydroxy-2-oxo-N-(2,2,2-trifluoroethyl)-1,2-dihydro-1,8-naphthyridine-3-carboxamide], the IC50 was less than 50 µM on HIV integrase and less than 100 µM in the assay on HXB2 virus.

Turning to `CC(NC(=O)c1c(O)c2cccnc2n(O)c1=O)c1ccccc1` (centres unmarked) [Example 23, 1,4-Dihydroxy-2-oxo-N-(1-phenylethyl)-1,2-dihydro-1,8-naphthyridine-3-carboxamide], the IC50 at HIV integrase is less than 50 µM; in the assay with HXB2 virus it was less than 100 µM.

Regarding `O=C(NCC1CCNC1)c1c(O)c2cccnc2n(O)c1=O` (centres unmarked) [Example 25, 1,4-Dihydroxy-2-oxo-N-(pyrrolidin-3-ylmethyl)-1,2-dihydro-1,8-naphthyridine-3-carboxamide], the figures for the concentration for half-maximal inhibition (IC50) on HIV integrase and in the assay with HXB2 virus were less than 50 µM and less than 100 µM, respectively.

For the molecule `O=c1c(-c2c(F)cccc2F)c(O)c2cccnc2n1O` [Example 29, 3-(2,6-Difluorophenyl)-1,4-dihydroxy-1,8-naphthyridin-2(1H)-one], the IC50 at HIV integrase was less than 50 µM; in the assay on HXB2 virus it was less than 100 µM.

On to `O=c1c(-c2ccccc2)c(O)c2cccnc2n1O` [Example 30, 1,4-Dihydroxy-3-phenyl-1,8-naphthyridin-2-(1H)-one], for which the IC50 at HIV integrase is less than 50 µM; in the assay with HXB2 virus, less than 100 µM.

Consider `COc1ccc(-c2c(O)c3cccnc3n(O)c2=O)cc1` [Example 31, 1,4-Dihydroxy-3-(4-methoxyphenyl)-1,8-naphthyridin-2(1H)-one], for which the 50% inhibitory concentration (IC50) was less than 50 µM on HIV integrase and less than 100 µM in the assay with HXB2 virus.

In the case of `O=c1c(-c2ccccc2F)c(O)c2cccnc2n1O` [Example 32, 3-(2-Fluorophenyl)-1,4-dihydroxy-1,8-naphthyridin-2(1H)-one], the IC50 at HIV integrase is less than 50 µM; in the assay with HXB2 virus, less than 100 µM.

Take `O=c1c(-c2ccc(F)cc2)c(O)c2cccnc2n1O` [Example 34, 3-(4-Fluorophenyl)-1,4-dihydroxy-1,8-naphthyridin-2(1H)-one]: the IC50 is less than 50 µM on HIV integrase and less than 100 µM in the assay on HXB2 virus.

As for `O=c1c(-c2ccccc2Cl)c(O)c2cccnc2n1O` [Example 35, 3-(2-Chlorophenyl)-1,4-dihydroxy-1,8-naphthyridin-2(1H)-one], the IC50 on HIV integrase was less than 50 µM; in the assay on HXB2 virus, less than 100 µM.

With `O=c1c(-c2cccc(F)c2)c(O)c2cccnc2n1O` [Example 36, 3-(3-Fluorophenyl)-1,4-dihydroxy-1,8-naphthyridin-2(1H)-one], the half-inhibitory concentration (IC50) on HIV integrase was less than 50 µM; in the assay on HXB2 virus it was less than 100 µM.

What is called IC50 is the concentration that gives 50% inhibition.
